Source: article PMC12474915 (Nature Communications, 2025)

Molecular target: T1, MET1MTase (Arabidopsis thaliana, UniProt P34881)
T1 construct: gene DMT1; residues 621-1534 (lacks RFTS1-2; acidic linker, BAH1-2, MTase), GST tag cleaved by HRV3C, E. coli Rosetta2 (DE3)
T1 sequence (P34881 621-1534): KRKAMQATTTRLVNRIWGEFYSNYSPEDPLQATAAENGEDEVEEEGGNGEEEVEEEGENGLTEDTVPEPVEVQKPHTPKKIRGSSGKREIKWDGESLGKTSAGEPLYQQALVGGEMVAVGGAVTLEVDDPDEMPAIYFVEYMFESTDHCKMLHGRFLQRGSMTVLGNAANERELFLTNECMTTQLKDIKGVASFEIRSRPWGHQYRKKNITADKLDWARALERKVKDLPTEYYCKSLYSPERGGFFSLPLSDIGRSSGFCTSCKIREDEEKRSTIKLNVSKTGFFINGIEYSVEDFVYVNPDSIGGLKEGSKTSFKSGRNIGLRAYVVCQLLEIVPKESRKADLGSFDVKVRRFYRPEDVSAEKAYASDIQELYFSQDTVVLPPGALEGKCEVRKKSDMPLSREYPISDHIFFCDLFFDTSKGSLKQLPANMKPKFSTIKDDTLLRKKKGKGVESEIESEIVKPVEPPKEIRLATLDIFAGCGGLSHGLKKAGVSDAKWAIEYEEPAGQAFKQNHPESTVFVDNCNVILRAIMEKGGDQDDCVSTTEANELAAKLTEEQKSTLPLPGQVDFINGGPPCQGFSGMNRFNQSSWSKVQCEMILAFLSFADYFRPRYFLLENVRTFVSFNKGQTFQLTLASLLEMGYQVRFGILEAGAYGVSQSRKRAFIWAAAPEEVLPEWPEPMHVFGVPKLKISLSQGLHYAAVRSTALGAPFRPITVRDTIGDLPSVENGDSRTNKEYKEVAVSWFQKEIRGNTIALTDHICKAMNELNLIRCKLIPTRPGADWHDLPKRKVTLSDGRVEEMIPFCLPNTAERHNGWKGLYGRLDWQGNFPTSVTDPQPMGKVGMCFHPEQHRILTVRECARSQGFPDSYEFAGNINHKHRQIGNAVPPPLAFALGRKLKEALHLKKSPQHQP
Assay: cryo-EM structure
Type: binding
Conditions: ternary complex with 12 bp hemimethylated DNA (5-fluorocytosine covalently bound to Cys1198); formed from added SAM; 2.74 Å

Structure (SMILES): Nc1ncnc2c1ncn2[C@@H]1O[C@H](CSCC[C@H](N)C(=O)O)[C@@H](O)[C@H]1O [SAH, S-adenosyl homocysteine]
- cryo-EM structure: catalytic core containing S-adenosyl homocysteine (SAH, a methyl donor cofactor product) binding site
